This note sets out measurements from patent US20250011285A1, “CYP11A1 INHIBITORS” (ORION CORPORATION, priority 2021, published 2025).

In general, pIC50 refers to the negative decadic logarithm of the IC50, by convention in mol/L.

pIC50: −log10 of the molar value. Where only a bound is given, the exact number is not on record here.

This test deals with T1, CYP11A1 (Homo sapiens, UniProt P05108).
T1 construct: human H295R adrenocortical carcinoma cell line was used as source of enzyme; endogenous in cells; host or cells: H295R human adrenocortical carcinoma cells
T1 sequence (P05108 40-521): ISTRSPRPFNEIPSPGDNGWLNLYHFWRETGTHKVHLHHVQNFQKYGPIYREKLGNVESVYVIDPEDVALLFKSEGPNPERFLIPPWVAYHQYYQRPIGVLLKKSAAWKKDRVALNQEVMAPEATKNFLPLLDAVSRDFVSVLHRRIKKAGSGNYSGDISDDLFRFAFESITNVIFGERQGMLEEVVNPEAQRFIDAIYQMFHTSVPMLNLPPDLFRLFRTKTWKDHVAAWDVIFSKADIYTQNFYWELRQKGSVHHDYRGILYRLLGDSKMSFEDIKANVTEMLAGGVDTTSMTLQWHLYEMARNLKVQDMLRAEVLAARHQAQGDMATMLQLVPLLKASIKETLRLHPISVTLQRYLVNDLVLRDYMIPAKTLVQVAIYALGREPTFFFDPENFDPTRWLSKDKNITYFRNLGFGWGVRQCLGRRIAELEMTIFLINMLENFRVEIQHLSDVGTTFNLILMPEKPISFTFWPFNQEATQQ
The test is described as follows: CYP11A1 inhibition, isocaproic acid release assay (IARA) in H295R cells. The conditions noted are these: human H295R adrenocortical carcinoma cells treated three days, 3 nM [24,25-3H]-labelled cholesterol, 1% DMSO; read-out: IC50 on CYP11A1 inhibition (Group). It is filed as cell-based. As to the method: The ability of the test compounds to inhibit conversion of cholesterol to pregnenolone and isocaproic acid was measured by modification of isocaproic acid release assay (IARA) described by Ruangwises et al. (Biology of Reproduction 1991; 45(1):143-50) except that human H295R adrenocortical carcinoma cell line was used as source of enzyme and extraction was done with dextran-coated charcoal suspension (Isomaa, V. et al., Endocrinology 1982; 111(3):833-843). […] To determine the half maximal inhibitory concentration (IC50) of the test compounds on CYP11A1 inhibition, the cells were treated for three days with increasing concentrations of the test compounds in the presence of 3 nM [24,25-3H]-labelled cholesterol (American Radiolabelled Chemicals).
The final DMSO concentration was 1%. Cell culture medium was extracted with dextran-coated charcoal suspension and the radiolabelled isocaproic acid was determined by mixing 100 μl of supernatant fraction in 200 μl of scintillation fluid (OptiPhase SuperMix, Perkin Elmer). Radioactivity was measured using a Microbeta scintillation counter (1450 MicroBeta Trilux, Wallac). All the test compounds were studied at 10 concentrations in duplicates.
`COC(=O)c1cc(CN2Cc3ccccc3C2)ccc1OCc1ccc(C(=O)N(C)C)cc1` [Compound 7, Methyl 2-((4-(dimethylcarbamoyl)benzyl)oxy)-5-(isoindolin-2-ylmethyl)-benzoate]: the pIC50 was 6.46 to 6.82.
To `CS(=N)(=O)c1ccc(COc2ccc(CN3Cc4ccccc4C3)c3cccnc23)cc1` (stereo not shown) [Compound 44, Imino(4-(((5-(isoindolin-2-ylmethyl)quinolin-8-yl)oxy)methyl)phenyl)(methyl)-λ^6-sulfanone] belongs > 6.82; to `COc1cc(CN2Cc3ccccc3C2)cc(F)c1OCc1ccc(C(=O)N(C)C)cc1` [Compound 28, 4-((2-Fluoro-4-(isoindolin-2-ylmethyl)-6-methoxyphenoxy)methyl)-N,N-di-methylbenzamide], 5.82 to 6.45; to `COC(=O)c1ccc(COc2ccc(CN3Cc4ccccc4C3)cc2OC)cc1` [Compound 1, Methyl 4-((4-(isoindolin-2-ylmethyl)-2-methoxyphenoxy)methyl) benzoate], 5.82 to 6.45.
Under `CN(C)C(=O)c1ccc(COc2ccc(CN3Cc4ccccc4C3)c(F)c2F)cc1` [Compound 27, 4-((2,3-Difluoro-4-(isoindolin-2-ylmethyl)phenoxy)methyl)-N,N-dimethyl-benzamide] stands 5.82 to 6.45; under `COC(=O)/C=C/c1ccc(COc2ccc(CN3Cc4ccccc4C3)cc2OC)cc1` [Compound 9, Methyl (E)-3-(4-((4-(isoindolin-2-ylmethyl)-2-methoxyphenoxy)methyl)phenyl)acrylate], 5.82 to 6.45.
To `COc1cc(CN2Cc3ccccc3C2)ccc1OCc1ccc(C(=O)N(C)C)cc1` [Compound 3, 4-((4-(Isoindolin-2-ylmethyl)-2-methoxyphenoxy)methyl)-N,N-dimethyl-benzamide] belongs > 6.82; to `COCCc1cc(CN2Cc3ccccc3C2)ccc1OCC1CCN(S(C)(=O)=O)CC1` [Compound 37, 2-(3-(2-Methoxyethyl)-4-((1-(methylsulfonyl)piperidin-4-yl)methoxy)benzyl)-isoindoline], 6.46 to 6.82; to `CS(=O)(=O)N1CCC(COc2ccc(CN3Cc4ccccc4C3)c3ncoc23)CC1` [Compound 46, 4-(Isoindolin-2-ylmethyl)-7-((1-(methylsulfonyl)piperidin-4-yl)methoxy)-benzo[d]oxazole], 5.82 to 6.45.
With `CS(=O)(=O)N1CCC(COc2ccc(CN3Cc4ccccc4C3)c3cn[nH]c23)CC1` [Compound 38, 4-(Isoindolin-2-ylmethyl)-7-((1-(methylsulfonyl)piperidin-4-yl)methoxy)-1H-indazole], the pIC50 is > 6.82.
As to `COCCS(=O)(=O)c1ccc(COc2ccc(CN3Cc4ccccc4C3)cc2COC)cc1` [Compound 20, 2-(4-((4-((2-Methoxyethyl)sulfonyl)benzyl)oxy)-3-(methoxymethyl)benzyl)-isoindoline], the pIC50 is > 6.82.
To `CN(C)C(=O)c1ccc(COc2ccc(CN3Cc4ccccc4C3)cc2[N+](=O)[O-])cc1` [Compound 40, 4-((4-(isoindolin-2-ylmethyl)-2-nitrophenoxy)methyl)-N,N-dimethylbenzamide] belongs > 6.82; to `COc1c(OCc2ccc(S(C)(=O)=O)cc2)ccc(CN2Cc3ccccc3C2)c1F` [Compound 21, 2-(2-Fluoro-3-methoxy-4-((4-(methylsulfonyl)benzyl)oxy)benzyl)isoindoline], > 6.82; to `Cn1ncc2c(CN3Cc4ccccc4C3)ccc(OCC3CCN(S(C)(=O)=O)CC3)c21` [Compound 47, 4-(Isoindolin-2-ylmethyl)-1-methyl-7-((1-(methylsulfonyl)piperidin-4-yl)-methoxy)-1H-indazole], > 6.82.
Under `CN(C)C(=O)c1ccc(COc2ccc(CN3Cc4ccccc4C3)cc2OCC(F)(F)F)cc1` [Compound 11, 4-((4-(Isoindolin-2-ylmethyl)-2-(2,2,2-trifluoroethoxy)phenoxy)methyl)-N,N-dimethylbenzamide] stands 6.46 to 6.82; under `CN(C)C(=O)c1ccc(COc2ccc(CN3Cc4ccccc4C3)cc2NS(C)(=O)=O)cc1` [Compound 53, 4-((4-(Isoindolin-2-ylmethyl)-2-(methylsulfonamido)phenoxy)methyl)-N,N-dimethylbenzamide], 5.82 to 6.45; under `CN(C)C(=O)c1ccc(COc2ccc(CN3Cc4ccccc4C3)cc2C#N)cc1` [Compound 6, 4-((2-Cyano-4-(isoindolin-2-ylmethyl)phenoxy)methyl)-N,N-dimethylbenzamide], > 6.82.
Under `CN(C)C(=O)c1ccc(COc2cc(F)c(CN3Cc4ccccc4C3)c(F)c2)cc1` [Compound 25, 4-((3,5-Difluoro-4-(isoindolin-2-ylmethyl)phenoxy)methyl)-N,N-dimethyl-benzamide] stands 6.46 to 6.82.
For `COCCNS(=O)(=O)c1ccc(COc2ccc(CN3Cc4ccccc4C3)cc2OC)cc1` [Compound 13, 4-((4-(Isoindolin-2-ylmethyl)-2-methoxyphenoxy)methyl)-N-(2-methoxyethyl)-benzenesulfonamide], the negative logarithm of the IC50 (pIC50) is > 6.82.
Consider `C=CCc1cc(CN2Cc3ccccc3C2)ccc1OCc1ccc(C(=O)N(C)C)cc1` [Compound 15, 4-((2-Allyl-4-(isoindolin-2-ylmethyl)phenoxy)methyl)-N,N-dimethylbenzamide], for which the pIC50 was 6.46 to 6.82.
Under `CN(C)C(=O)c1ccc(COc2ccc(CN3Cc4ccccc4C3)cc2OC(F)(F)F)cc1` [Compound 29, 4-((4-(Isoindolin-2-ylmethyl)-2-(trifluoromethoxy)phenoxy)methyl)-N,N-dimethylbenzamide] stands 5.82 to 6.45; under `CN(C)C(=O)c1ccc(COc2ccc(CN3Cc4ccccc4C3)c3cccnc23)cc1` [Compound 41, 4-(((5-(Isoindolin-2-ylmethyl)quinolin-8-yl)oxy)methyl)-N,N-dimethyl-benzamide], > 6.82.
